Source: ChEMBL document CHEMBL1124878, “Synthesis, phencyclidine-like pharmacology, and antiischemic potential of meta-substituted 1-(1-phenylcyclohexyl)-1,2,3,6-tetrahydropyridines” (J Med Chem, 1990)

What follows are compounds tested against T1, Glutamate receptor ionotropic, NMDA 2C (Rattus norvegicus, UniProt Q00961) (assay: Ability to displace [3H]- TCP from PCP receptor in tissue homogenate preparation of fresh whole rat brain minus cerebellum.).
Format: tissue-based

T1 sequence (Q00961 whole entry): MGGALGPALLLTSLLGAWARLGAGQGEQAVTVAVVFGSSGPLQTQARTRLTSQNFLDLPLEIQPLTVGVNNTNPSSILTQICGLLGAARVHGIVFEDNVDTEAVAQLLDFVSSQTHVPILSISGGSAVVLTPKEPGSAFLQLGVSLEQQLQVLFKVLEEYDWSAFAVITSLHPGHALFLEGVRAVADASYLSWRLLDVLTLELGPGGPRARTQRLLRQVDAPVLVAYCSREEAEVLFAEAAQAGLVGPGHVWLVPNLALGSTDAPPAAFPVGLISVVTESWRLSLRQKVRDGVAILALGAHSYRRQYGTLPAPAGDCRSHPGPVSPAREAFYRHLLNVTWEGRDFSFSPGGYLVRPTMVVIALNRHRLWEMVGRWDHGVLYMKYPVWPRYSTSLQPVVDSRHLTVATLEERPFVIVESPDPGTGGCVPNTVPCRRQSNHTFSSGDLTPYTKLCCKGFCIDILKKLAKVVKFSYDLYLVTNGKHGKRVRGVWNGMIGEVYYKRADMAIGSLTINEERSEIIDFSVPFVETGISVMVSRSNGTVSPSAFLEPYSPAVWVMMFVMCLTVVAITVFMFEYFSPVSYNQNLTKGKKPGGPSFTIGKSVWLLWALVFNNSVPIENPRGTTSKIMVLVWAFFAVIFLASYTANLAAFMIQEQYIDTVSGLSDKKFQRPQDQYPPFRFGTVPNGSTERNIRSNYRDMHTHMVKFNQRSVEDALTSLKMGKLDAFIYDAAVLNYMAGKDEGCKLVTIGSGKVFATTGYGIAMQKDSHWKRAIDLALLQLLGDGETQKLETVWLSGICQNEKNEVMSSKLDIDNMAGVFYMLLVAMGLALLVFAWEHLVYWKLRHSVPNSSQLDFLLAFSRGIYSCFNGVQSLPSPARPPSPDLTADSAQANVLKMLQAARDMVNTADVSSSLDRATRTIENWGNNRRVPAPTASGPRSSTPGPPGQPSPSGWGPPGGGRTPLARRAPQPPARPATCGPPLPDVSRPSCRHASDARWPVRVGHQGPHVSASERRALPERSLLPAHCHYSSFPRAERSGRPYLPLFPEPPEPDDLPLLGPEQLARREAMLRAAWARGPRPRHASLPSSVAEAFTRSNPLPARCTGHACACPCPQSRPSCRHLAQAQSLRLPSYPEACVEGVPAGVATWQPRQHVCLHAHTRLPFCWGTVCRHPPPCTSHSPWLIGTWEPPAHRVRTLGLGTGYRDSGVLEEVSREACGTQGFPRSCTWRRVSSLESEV

Row | SMILES | Ki
1 | CSc1cccc(C2(N3CC=CCC3)CCCCC2)c1 | 231 nM
2 | C=Cc1cccc(C2(N3CC=CCC3)CCCCC2)c1 | 114 nM
3 | Cc1cccc(C2(N3CC=CCC3)CCCCC2)c1 | 81 nM
4 | COCOc1cccc(C2(N3CC=CCC3)CCCCC2)c1 | 92 nM
5 | Fc1cccc(C2(N3CC=CCC3)CCCCC2)c1 | 281 nM
6 | O=Cc1cccc(C2(N3CC=CCC3)CCCCC2)c1 | 324 nM
7 | FC(F)(F)c1cccc(C2(N3CC=CCC3)CCCCC2)c1 | 422 nM
8 | CC(=O)Oc1cccc(C2(N3CC=CCC3)CCCCC2)c1 | 6 nM
9 | C1=CCN(C2(c3ccccc3)CCCCC2)CC1 | 37 nM

Each compound was assayed against T1, Glutamate receptor ionotropic, NMDA 2C (assay: Ability to displace [3H]TCP from PCP receptor in tissue homogenate preparation of fresh whole rat brain minus cerebellum.).
Format: tissue-based

Row | SMILES | Ki
10 | Oc1cccc(C2(N3CC=CCC3)CCCCC2)c1 | 7 nM
11 | COc1cccc(C2(N3CC=CCC3)CCCCC2)c1 | 33 nM
12 | C1=CCN(C2(c3cccs3)CCCCC2)CC1 | 12 nM
13 | COc1cc(OC)cc(C2(N3CC=CCC3)CCCCC2)c1 | 8600 nM
14 | C1=CCN(C2(c3cccc(C4OCCO4)c3)CCCCC2)CC1 | 601 nM
15 | C1=CCN(C2(c3cccc(OCc4ccccc4)c3)CCCCC2)CC1 | 733 nM
16 | O/N=C/c1cccc(C2(N3CC=CCC3)CCCCC2)c1 | 56 nM
